Series [1] relates to P. falciparum strain FcM29 (highly resistant to chloroquine). Kind of series: antimalarial activity assay, radioactive micromethod of Desjardins (tritiated hypoxanthine incorporation), strain FcM29. Format: cell-based. The settings on record: Plasmodium falciparum, Erythrocyte, read-out: IC50 (concentration of the compound required to inhibit the parasite growth by 50%). As for the experimental part:
Two strains of P. falciparum are used, the origin of which is Colombia (FcB1, strain moderately resistant to chloroquine) and Cameroon (FcM29, strain highly resistant to chloroquine). These strains of P. falciparum are cultured continuously in human red blood cells according to the method of Trager and Jensen (W. Trager, J. Jensen, Science, 1976, 193, 673-675): the parasites are maintained in human red blood cells (O±), diluted to 2% parasiteamia in an RPMI 1640 medium supplemented with 25 mM of Hepes, 24 mM of NaHCO3 and 2 mM of L-glutamine, and supplemented with 5% of human serum of all groups. The parasites are incubated at 37° C. in a humid atmosphere and at 5% CO2.
The antimalarial activity assays are carried out according to the radioactive micromethod of Desjardins (R. E. Desjardins, C. J. Canfield, J. D. Haynes, J. D. Chulay, Antimicrob. Agents Chemother., 1979, 16, 710-718). Each molecule is tested in triplicate. The assays are carried out in 96-well microplates. The strains of P. falciparum are cultured in solutions of RPMI 1640 supplemented with 5% of human serum with a 2% haematocrit and a 1.5% parasitaemia. For each assay, the parasites are incubated with decreasing concentrations of compounds of formula (I) for 48 h at 37° C. in a humid atmosphere and at 5% CO2.
The first dilution of the test compound is prepared at 1 mg/ml in dimethyl sulphoxide. The dilution range for the successive daughter solutions is also prepared in dimethyl sulphoxide. Each daughter dilution is subsequently diluted to 1/50 in RPMI 1640 supplemented with 5% of human serum, all the dilutions being prepared at 37° C. These dilutions are then added to the parasites in culture in the microplates. After addition of the test compound, the parasites are in culture in RPMI 1640 containing 5% of human serum and 1% of dimethyl sulphoxide. The parasite growth is measured by the incorporation of tritiated hypoxanthine (added 24 h after the beginning of exposure to the test compound) compared with incorporation in the absence of the test compound (taken as 100%). The IC50 values (concentration of the compound required to inhibit the parasite growth by 50%) are determined by plotting the percentage inhibition as a function of the log of the dose by means of the GraphPad Prism 4® processing software (GraphPad software, Inc., 5755 Oberlin Drive, # 110, San Diego, Calif. 92121, USA).

Setting [2] is: strain FcM29, 48 h incubation in human red blood cells, tritiated hypoxanthine incorporation.

SMILES strings stand for the structures. Where a name gives a salt, the structure may show the parent alone. Read-outs that look alike come from different tables or passages of the source.

As to `CCNCc1cccc(NC(=O)c2n[nH]c3ccc(-c4cncc5ccccc45)cc23)c1` (as salt: HCl) [Compound No. 14, N-{3-[(Ethylamino)methyl]phenyl}-5-isoquinolin-4-yl-1H-indazole-3-carboxamide dihydrochloride], the melting point was > 135 °C. Take `O=C(Nc1ccncc1)c1n[nH]c2ccc(-c3cncc4ccccc34)cc12` [Compound No. 3, N-(Pyridin-4-yl)-5-isoquinolin-4-yl-1H-indazole-3-carboxamide]: the melting point is > 250 °C. The IC50 in series [1] (setting [2]) is 0.6 µM. The corresponding values for `O=C(Nc1ccncc1)c1n[nH]c2ccc(-c3cncc4[nH]ccc34)cc12` [Compound No. 10, N-(Pyridin-4-yl)-5-(1H-pyrrolo[2,3-c]pyridin-4-yl)-1H-indazole-3-carboxamide] are > 250 °C and 0.13 µM.

For the compound `O=C(Nc1ccncc1)c1n[nH]c2ccc(-c3cn[nH]c3)cc12` [Compound No. 11, 5-(1H-Pyrazol-4-yl)-N-(pyridin-4-yl)-1H-indazole-3-carboxamide], the melting point is > 250 °C. Also, the IC50 in series [1] (setting [2]) was found to be 0.8 µM.

With `CCNCc1cccc(NC(=O)c2n[nH]c3ccc(-c4cncc5ccccc45)cc23)c1` [Compound No. 14, N-{3-[(Ethylamino)methyl]phenyl}-5-isoquinolin-4-yl-1H-indazole-3-carboxamide dihydrochloride], the IC50 in series [1] (48 h) came out at 0.272 µM. As for `O=C(Nc1ccncc1)c1n[nH]c2ccc(-c3ccc(Cl)nc3)cc12` [compound 12, 5-(6-chloropyridin-3-yl)-N-pyridin-4-yl-1H-indazole-3-carboxamide], the melting point is > 250 °C. In addition, the IC50 in series [1] (setting [2]) was found to be 0.8 µM. In the case of `CCNCc1cccc(NC(=O)c2n[nH]c3ccc(-c4cncc5[nH]ccc45)cc23)c1` [compound 21, N-{3-[(ethylamino)methyl]phenyl}-5-(1H-pyrrolo[2,3-c]pyridin-4-yl)-1H-indazole-3-carboxamide], the melting point was > 250 °C. Besides, in series [1] (setting [2]), the IC50 is 0.406 µM.

The term melting point denotes the temperature of the solid-liquid transition.

The record behind these values is patent US7842711B2, “Indazolecarboxamide derivatives for the treatment and prevention of malaria” (Sanofi-Aventis, priority 2004, dated 2010).
